Test results from patent US20190070154A1, “NEW METHODS OF USE FOR AN ANTI-DIARRHEA AGENT” (Duke University, priority 2015, published 2019).

Test system: Wnt/β-catenin transcription
Assay: TOPFlash Reporter Assay (Wnt-3A-stimulated HEK293 cells stably transfected with p8xTOPFlash)
Assay type: cell-based
Conditions: for IC50: Homo sapiens, read-out: Inhibition Wnt/β-catenin transcription TopFlash IC50; for IC50 / Inhibition Wnt/β-catenin transcription TopFlash, % inhibition: HEK293 TOPFlash cells, Wnt-3A conditioned medium, 8 hour treatment
Protocol: Wnt-3A conditioned medium was prepared using L WNT-3A cells (ATCC(CRL-2647™) purchased from ATCC. Conditioned medium was obtained following published protocols (http://www.atcc.org/Products/All/CRL-2647.aspx#culturemethod) (Chen, M. Y.; Wang, J. B.; Lu, J. Y.; Bond, M. C.; Ren, X. R.; Lyerly, H. K.; Barak, L. S.; Chen, W. Biochemistry 2009, 48, 10267). HEK293 cells were stably transfected with p8×TOPFlash, Renilla luciferase plasmid pRL-TK (Promega), and pLKO.1 as previously published (Chen, M. Y.; Wang, J. B.; Lu, J. Y.; Bond, M. C.; Ren, X. R.; Lyerly, H. K.; Barak, L. S.; Chen, W. Biochemistry 2009, 48, 10267). Stably transfected cells were seeded in 100 μl of cell growth medium/well in 96-well plates at 100% confluency. Fifty microliters of Wnt-3A conditioned medium containing the chemical compounds to be tested or DMSO was added to each well. After an 8 hour treatment, the cells were washed once with PBS and lysed with 55 μl of Passive Lysis Buffer supplied in the Dual-Luciferase Reporter Assay kit (Promega, Madison, Wis.). Twenty-five microliters of cell lysate was used for measuring luciferase activity in a 96-well plate reader (FluoStar Optima, BMG Labtech, Chicago, Ill.). Data were fit using GraphPad Prism (mean±SEM, n>=2).
Data is from a single experiment unless otherwise noted. Data that is an average of two experiments is noted as “n=2” while data that is an average of three or more experiments is presented as the average plus or minus the standard error of the mean.

IC50 [µM]	SMILES	other results
0.49	O=C(Nc1ccc([N+](=O)[O-])cc1Cl)c1cc(Cl)ccc1O [A, reference compound]	
> 12	O=C(Nc1ncc([N+](=O)[O-])s1)c1ccccc1O [B, reference compound]	
11.4	CC(=O)Oc1ccccc1C(=O)Nc1ncc([N+](=O)[O-])s1 [C, reference compound]	
	O=C(Nc1ccncc1Cl)c1cc(Cl)ccc1O [Compound 1, 5-chloro-N-(3-chloropyridin-4-yl)-2-hydroxybenzamide]	Inhibition Wnt/β-catenin transcription TopFlash, % inhibition (at 10 μM): 80% inhibition at 10 μM
	O=C(Nc1ccc([N+](=O)[O-])cn1)c1cc(Cl)ccc1O [Compound 2, 5-chloro-2-hydroxy-N-(5-nitropyridin-2-yl)benzamide]	Inhibition Wnt/β-catenin transcription TopFlash, % inhibition (at 2 μM): 75% inhibition at 2 μM
1.67	O=C(Nc1ccc(C(F)(F)F)cn1)c1cc(Cl)ccc1O [Compound 3, 5-chloro-2-hydroxy-N-(5-(trifluoromethyl)pyridin-2-yl)benzamide]	
17.4	O=C(Nc1ncc(C(F)(F)F)cc1Cl)c1cc(Cl)ccc1O [Compound 4, 5-chloro-N-(3-chloro-5-(trifluoromethyl)pyridin-2-yl)-2-hydroxybenzamide]	
8.8	O=C(Nc1ncc([N+](=O)[O-])s1)c1cc(Cl)ccc1O [Compound 5, 5-chloro-2-hydroxy-N-(5-nitrothiazol-2-yl)benzamide]	
	CC(=O)Oc1ccccc1C(=O)Nc1ncc([N+](=O)[O-])s1 [nitazoxanide, reference compound]	Inhibition of the Wnt/Frizzled signaling pathway (statement in words): inhibitor of the Wnt/Frizzled signaling pathway
